The text below walks through data of US20250228865A1, “COMPOUNDS FOR ENHANCING READ THROUGH OF GENES CONTAINING PREMATURE TERMINATION CODONS AND METHODS FOR MAKING AND USING THE SAME” (Sanofi US Services Inc., priority 2022, published 2025).

Test [1] concerns recombinant human CFTR carrying the premature stop codon (PTC) mutation G542X. Briefly: CFTR-PTC mutant translation readthrough, Nanoluc tagged CFTR luminescence (G542X cell line). It is filed as cell-based. As to conditions: in combination with G418, G542X cell line; for CFTR G542X ACTIVITY Fold 10 μM G-418: fold over 10 μM G-418; for EC50: 16HBE cells. In short, it runs like this:
(§1)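 Readthrough is the 48 h compound-induced luminescence increase scaled to that of maximal G418 (125-250 μM). Compounds run from 50 μM final in 2-fold steps, ±10 μM G418, on 16HBE lines carrying Nanoluc-tagged CFTR G542X (extracellular loop 4 tag) or R1162X (C-terminal tag), with 3 μM VX-809 present.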

Test [2] deals with recombinant human CFTR carrying the premature stop codon (PTC) mutation R1162X. Briefly: CFTR-PTC mutant translation readthrough, Nanoluc tagged CFTR luminescence (R1162X cell line). The conditions noted are these: for CFTR R1162X ACTIVITY Fold 10 μM G-418: fold over 10 μM G-418, in combination with G418; for EC50: in combination with G418, 16HBE cells, read-out: CFTR R1162X ACTIVITY EC50. It is filed as cell-based. The gist of the method: as §1

Molecules are shown by their SMILES.

On to `Cc1cccc(C(F)(F)F)c1COc1cnc(-n2cnc(CO)c2)nc1`, for which, in test [1], the “CFTR G542X ACTIVITY Fold 10 μM G-418” value is given as “A′ (A′ = ≥10X)” and the concentration for a half-maximal effect (EC50) is below 1000 nM. For the same compound, in test [2], the “CFTR R1162X ACTIVITY Fold 10 μM G-418” value was “A′ (A′ = ≥10X)” and the 50% effective concentration (EC50) is below 1000 nM.
Turning to `NC(=O)N1CC2(C1)CN(c1ncc(OCc3c(Cl)cccc3C(F)(F)F)cn1)C2`, in test [1], the “CFTR G542X ACTIVITY Fold 10 μM G-418” value is given as “A′ (A′ = ≥10X)” and the EC50 lay in the range of 1000 to 10000 nM. Moreover, in test [2], the “CFTR R1162X ACTIVITY Fold 10 μM G-418” value is recorded as “B′ (B′ = ≥5X to <10X)” and the EC50 was 1000 to 10000 nM.
Regarding `OCc1ncn(-c2ncc(OCc3c(Cl)cccc3C(F)(F)F)cn2)n1`, in test [1], the “CFTR G542X ACTIVITY Fold 10 μM G-418” value is “A′ (A′ = ≥10X)” and the EC50 is below 1000 nM. Further, in test [2], the “CFTR R1162X ACTIVITY Fold 10 μM G-418” value is “A′ (A′ = ≥10X)” and the EC50 lay in the range of 1000 to 10000 nM.
On to `OC1CN(c2ncc(OCc3c(Cl)cccc3Cl)cn2)C1` [1-[5-[(2,6-dichlorophenyl)methoxy]pyrimidin-2-yl]azetidin-3-ol], for which, in test [1], the “CFTR G542X ACTIVITY Fold 10 μM G-418” value was “A′ (A′ = ≥10X)” and the EC50 was in the range of 1000 to 10000 nM. Further, in test [2], the “CFTR R1162X ACTIVITY Fold 10 μM G-418” value is “A′ (A′ = ≥10X)” and the EC50 is 1000 to 10000 nM.
Consider `CNC(=O)N1CCN(c2ncc(OCc3c(C)cccc3C(F)(F)F)cn2)CC1`, for which, in test [1], the “CFTR G542X ACTIVITY Fold 10 μM G-418” value is listed as “A′ (A′ = ≥10X)” and the concentration for a half-maximal effect (EC50) was below 1000 nM. Moreover, in test [2], the “CFTR R1162X ACTIVITY Fold 10 μM G-418” value was “A′ (A′ = ≥10X)” and the concentration giving a half-maximal response (EC50) is below 1000 nM.
`Cc1cccc(C(F)(F)F)c1COc1cnc(N2CCC(O)C(F)(F)C2)nc1` (centres unmarked): in test [1], the “CFTR G542X ACTIVITY Fold 10 μM G-418” value is on record as “C′ (C′ = <5X)” and the 50% effective concentration (EC50) was below 1000 nM. Also, in test [2], the “CFTR R1162X ACTIVITY Fold 10 μM G-418” value is reported as “A′ (A′ = ≥10X)” and the EC50 is below 1000 nM.
On to `O=C1OC(CO)CN1c1ccc(OCc2c(Cl)cccc2Cl)cn1` (centres unmarked) [3-[5-[(2,6-dichlorophenyl)methoxy]-2-pyridyl]-5-(hydroxymethyl)oxazolidin-2-one], for which, in test [1], the “CFTR G542X ACTIVITY Fold 10 μM G-418” value is given as “A′ (A′ = ≥10X)” and the concentration for a half-maximal effect (EC50) was 1000 to 10000 nM. Besides, in test [2], the “CFTR R1162X ACTIVITY Fold 10 μM G-418” value is “A′ (A′ = ≥10X)” and the concentration for a half-maximal effect (EC50) was 1000 to 10000 nM.
For the compound `Cc1cccc(C(F)(F)F)c1COc1ccc(N2C(=O)NC(C)(C)C2=O)nc1`, in test [1], the “CFTR G542X ACTIVITY Fold 10 μM G-418” value is recorded as “A′ (A′ = ≥10X)” and the half-maximal effective concentration (EC50) is 1000 to 10000 nM. Besides, in test [2], the “CFTR R1162X ACTIVITY Fold 10 μM G-418” value is listed as “B′ (B′ = ≥5X to <10X)” and the EC50 lay in the range of 1000 to 10000 nM.
As to `OCc1ccn(-c2ccc(OCc3c(Cl)cccc3Cl)cc2)n1` [[1-[4-[(2,6-dichlorophenyl)methoxy]phenyl]pyrazol-3-yl]methanol], in test [1], the “CFTR G542X ACTIVITY Fold 10 μM G-418” value is “A′ (A′ = ≥10X)” and the EC50 was below 1000 nM. Besides, in test [2], the “CFTR R1162X ACTIVITY Fold 10 μM G-418” value was “A′ (A′ = ≥10X)” and the 50% effective concentration (EC50) was in the range of 1000 to 10000 nM.
With `COC1CCN(c2ncc(OCc3c(Cl)cccc3Cl)cn2)C1` (centres unmarked) [5-[(2,6-dichlorophenyl)methoxy]-2-(3-methoxypyrrolidin-1-yl)pyrimidine], in test [1], the “CFTR G542X ACTIVITY Fold 10 μM G-418” value was “A′ (A′ = ≥10X)” and the EC50 was 1000 to 10000 nM. Further, in test [2], the “CFTR R1162X ACTIVITY Fold 10 μM G-418” value is recorded as “B′ (B′ = ≥5X to <10X)” and the concentration giving a half-maximal response (EC50) fell in the range of 1000 to 10000 nM.
Consider `OCc1cn(-c2ccc(OCc3c(Cl)cccc3Cl)cn2)cn1` [[1-[5-[(2,6-dichlorophenyl)methoxy]-2-pyridyl]imidazol-4-yl]methanol], for which, in test [1], the “CFTR G542X ACTIVITY Fold 10 μM G-418” value is “B′ (B′ = ≥5X to <10X)” and the EC50 is 1000 to 10000 nM. In test [2], the “CFTR R1162X ACTIVITY Fold 10 μM G-418” value is reported as “A′ (A′ = ≥10X)” and the EC50 is above 10000 nM.
The corresponding values for `C[C@H]1CO[C@@H](CO)CN1c1ncc(OCc2c(Cl)cccc2Cl)cn1` (racemic) are “A′ (A′ = ≥10X)”, below 1000 nM, “A′ (A′ = ≥10X)” and below 1000 nM.
The corresponding values for `Cc1cccc(C(C)(F)F)c1COc1cnc(N2CCN(C(N)=O)CC2)nc1` are “A′ (A′ = ≥10X)”, below 1000 nM, “A′ (A′ = ≥10X)” and below 1000 nM.
On to `O=C(O)c1ncn(-c2ncc(OCc3c(Cl)cccc3C(F)(F)F)cn2)n1`, for which the EC50 in test [1] and in test [2] was above 10000 nM each time.
For `Cc1cccc(C(F)(F)F)c1COc1cnc(N2CCO[C@@H](CO)C2)nc1`, in test [1], the “CFTR G542X ACTIVITY Fold 10 μM G-418” value is recorded as “A′ (A′ = ≥10X)” and the EC50 is below 1000 nM. In test [2], the “CFTR R1162X ACTIVITY Fold 10 μM G-418” value is given as “A′ (A′ = ≥10X)” and the EC50 is below 1000 nM.
For `Cc1cccc(C(F)(F)F)c1COc1ccc(-n2cnc(CO)c2)nc1`, in test [1], the “CFTR G542X ACTIVITY Fold 10 μM G-418” value is listed as “A′ (A′ = ≥10X)” and the EC50 was below 1000 nM. Also, in test [2], the “CFTR R1162X ACTIVITY Fold 10 μM G-418” value is reported as “A′ (A′ = ≥10X)” and the EC50 lay within 1000 to 10000 nM.
